Measurements: patent publication US5849259A, “3-,8-substituted deuteroporphyrin derivatives, pharmaceutical agents containing the latter and process for their production” (priority 1992, dated 1998)

Key:
HT29 colon cancer = assay: Signal intensity change in tissues of tumor-bearing (HT29 colon cancer) nude mice, Bruker Biospec 2.35 Tesla, MSSE; type: in vivo, nude mice (Balb/c nu/nu); conditions: 0.05 mmol/kg i.v.; for enhancement, HT29 / enhancement, Kidneys / enhancement, Liver / enhancement, Muscle: time 0 = 100
Method: On a Bruker Biospec nuclear spin tomograph (2.35 Tesla), the al intensity change in various tissues of tumor-bearing (HT29 colon cancer) nude mice (Balb/c nu/nu) was studied after i.v administration of 0.05 mmol/kg of the compound according to example 1c (10 mmol/l, pH 7.2; 37° C. in bidistilled water). The measurement takes place with a multi slice single echo sequence (MSSE). Imaging parameters: TR: 400 ms, TE: 30 ms, layer thickness: 4 mm, number of averages: 4/slice, matrix 256^2. […]

VX-2 carcinoma = assay: Signal intensity in tissues of tumor-bearing rabbit (VX-2 carcinoma), Siemens Magneton 1.5 Tesla; type: in vivo
Source text: On a Siemens Magneton^(R) (1.5 Tesla; 64 MHz), the signal intensity in various tissues of a tumor-bearing rabbit [hare rabbit, Wulf, female, approximately 4 kg body weight (n=3), tumor of VX-2 carcinoma implanted intramuscularly about 3 weeks before the beginning of the test) was studied after the i.v. administration of […] body weight (corresponding to 0.05 mmol/kg of gadolinium) of the compound according to the invention produced according to Example 1c. The measurement took place with the following imaging parameters: T1 -weighted spin echo sequence: TR : 350 ms, TE : 15 ms, layer orientation: coronary, layer thickness 3 mm, number of averages: 4 per layer, field of view: 150 mm, matrix 256^2, 4-6 layers 1 echo per imaging sequence.
The relative signal intensities in various tissues are represented in FIG. 4. The output signal intensity (=SIprecontrast) in the various tissues was set equal to 1 in each case.

[1] = Tissue concentrations by ICP-AES 2 hours after 0.1 mmol/kg i.v. in nude mice with implanted carcinomas (HT29, WiDr, MATLu); type: in vivo, nude mice (Balb/c nu/nu)
Method: (§1) f) 9 nude mice (Balb/c nu/nu) with subcutaneously implanted carcinomas (HT29, WiDr and MATLu) were each administered by i.v. 0.1 mmol/kg of the deuteroporphyrin derivative of example 1c (10 mmol/L dissolved in bidistilled water, pH 7.2, 37° C.). After 2 hours, the animals were killed and dissected. The tissue concentrations were determined after corresponding working-up (HNO3 conc.) by ICP-AES and calculated for % of the administered dose per gram of tissue net weight. Moreover, tissue relaxation times T1 and T2 were determined (Bruker minispec pc 120). To determine the blank readings, control animals were correspondingly studied without KM-administration.

[2] = Tissue relaxation times T1 and T2 (Bruker minispec pc 120) after 0.1 mmol/kg i.v.; type: in vivo, nude mice (Balb/c nu/nu)
Method: e) 9 nude mice (Balb/c nu/nu) with subcutaneously implanted colon cancers (HT29 and WiDr) were each administered by i.v. 0.1 mmol/kg of the deuteroporphyrin derivative of the compound according to example 1c (10 mmol/l dissolved in bidistilled water, pH 7.2, 37° C.). After 0.5, 3 and 24 hours, the animals were killed and dissected. The tissue concentrations were determined after corresponding working-up (HNO3 conc.) by ICP-AES and calculated for % of the administered dose per gram of tissue net weight. Moreover, tissue relaxation times T1 and T2 were determined (Bruker minispec pc 120).
as §1

[3] = 0.0025 mmol/kg i.v. (corresponding to 0.05 mmol/kg of gadolinium)

N,N'-Bis[9-carboxylato-2,5,8-tris(carboxylatomethyl)-2,5,8-triazanonyl-carbamoyl]-mesoporphyrin-IX-13,17-diamide, digadolinium complex, disodium salt [Example 1c]
signal intensity change, tumor and muscle (HT29 colon cancer): only a slight change | enhancement, HT29 (HT29 colon cancer; 5 min): 116 ± 19 | enhancement, Kidneys (HT29 colon cancer; 5 min): 185 ± 34 | enhancement, Liver (HT29 colon cancer; 5 min): 122 ± 31 | enhancement, Muscle (HT29 colon cancer; 5 min): 119 ± 8 | signal intensity change, liver tissue (HT29 colon cancer; 5 minutes p.i.): marked signal intensity increase | enhancement, HT29 (HT29 colon cancer; 60 min): 128 ± 21 | enhancement, Kidneys (HT29 colon cancer; 60 min): 240 ± 26 | enhancement, Liver (HT29 colon cancer; 60 min): 164 ± 22 | enhancement, Muscle (HT29 colon cancer; 60 min): 129 ± 7 | enhancement, HT29 (HT29 colon cancer; 90 min): 148 ± 22 | enhancement, Kidneys (HT29 colon cancer; 90 min): 248 ± 18 | enhancement, Liver (HT29 colon cancer; 90 min): 202 ± 37 | enhancement, Muscle (HT29 colon cancer; 90 min): 143 ± 21 | enhancement, HT29 (HT29 colon cancer; 120 min): 155 ± 30 | enhancement, Kidneys (HT29 colon cancer; 120 min): 246 ± 6 | enhancement, Liver (HT29 colon cancer; 120 min): 194 ± 33 | enhancement, Muscle (HT29 colon cancer; 120 min): 147 ± 17 | enhancement, HT29 (HT29 colon cancer; 150 min): 167 ± 29 | enhancement, Kidneys (HT29 colon cancer; 150 min): 225 ± 12 | enhancement, Liver (HT29 colon cancer; 150 min): 197 ± 17 | enhancement, Muscle (HT29 colon cancer; 150 min): 146 ± 8 | enhancement, HT29 (HT29 colon cancer; 180 min): 161 ± 22 | enhancement, Kidneys (HT29 colon cancer; 180 min): 212 ± 16 | enhancement, Liver (HT29 colon cancer; 180 min): 212 ± 9 | enhancement, Muscle (HT29 colon cancer; 180 min): 157 ± 8 | enhancement, implanted tumor (VX-2 carcinoma; [3]): good long acting enhancement | enhancement, majority of the lymph nodes on the tumor-bearing side (VX-2 carcinoma; [3]): good long acting enhancement | diagnosis of metastasis of the lymph nodes (VX-2 carcinoma; confirmed by histological study): a metastasis attack of the lymph nodes could therefore be diagnosed | tissue concentration in prostate cancer (MATLu) versus colon cancers ([1]; 2 hours, 0.1 mmol/kg i.v.): greater than in the colon cancers | tissue concentration, kidneys ([1]; HT29 mice, 2 hours): 6.23 ± 1.80 % of the administered dose per gram of tissue net weight | tissue concentration, kidneys ([1]; MATLu mice, 2 hours): 2.73 ± 0.33 % of the administered dose per gram of tissue net weight | tissue concentration, kidneys ([1]; WiDr mice, 2 hours): 4.23 ± 0.19 % of the administered dose per gram of tissue net weight | tissue concentration, HT29 tumor ([1]; mouse, in vivo, iv, 2 h): 1.00 ± 0.27 % of the administered dose per gram of tissue net weight | tissue concentration, MATLu tumor ([1]; mouse, in vivo, iv, 2 h): 1.92 ± 2.09 % of the administered dose per gram of tissue net weight | tissue concentration, WiDr tumor ([1]; mouse, in vivo, iv, 2 h): 0.83 ± 0.05 % of the administered dose per gram of tissue net weight | tissue relaxation time T1, HT29 tumor ([2]; 0.5 hour): 410 ± 30 ms | tissue relaxation time T1, WiDr tumor ([2]; 0.5 hour): 320 ± 40 ms | tissue relaxation time T1, kidneys ([2]; 0.5 hour): 160 ± 10 ms | tissue relaxation time T1, liver ([2]; 0.5 hour): 220 ± 20 ms | tissue relaxation time T1, muscle ([2]; 0.5 hour): 500 ± 40 ms | tissue relaxation time T2, HT29 tumor ([2]; 0.5 hour): 81 ± 4 ms | tissue relaxation time T2, WiDr tumor ([2]; 0.5 hour): 67 ± 7 ms | tissue relaxation time T2, kidneys ([2]; 0.5 hour): 42 ± 1 ms | tissue relaxation time T2, liver ([2]; 0.5 hour): 34 ± 3 ms | tissue relaxation time T2, muscle ([2]; 0.5 hour): 32 ± 1 ms | effect on tissue relaxation times in prostate cancer (MATLu) versus colon cancers ([2]; 2 hours): greater than in the colon cancers | tissue relaxation time T1, HT29 tumor ([2]; 2 hours): 375 ± 32 ms | tissue relaxation time T1, MATLu ([2]; 2 hours): 361 ± 65 ms | tissue relaxation time T1, WiDr tumor ([2]; 2 hours): 358 ± 70 ms | tissue relaxation time T2, HT29 tumor ([2]; 2 hours): 94 ± 7 ms | tissue relaxation time T2, MATLu ([2]; 2 hours): 102 ± 10 ms | tissue relaxation time T2, WiDr tumor ([2]; 2 hours): 110 ± 9 ms | tissue relaxation time T1, HT29 tumor ([2]; 3 hours): 440 ± 70 ms | tissue relaxation time T1, WiDr tumor ([2]; 3 hours): 430 ± 50 ms | tissue relaxation time T1, kidneys ([2]; 3 hours): 230 ± 30 ms | tissue relaxation time T1, liver ([2]; 3 hours): 220 ± 30 ms | tissue relaxation time T1, muscle ([2]; 3 hours): 560 ± 40 ms | tissue relaxation time T2, HT29 tumor ([2]; 3 hours): 72 ± 8 ms | tissue relaxation time T2, WiDr tumor ([2]; 3 hours): 72 ± 7 ms | tissue relaxation time T2, kidneys ([2]; 3 hours): 47 ± 5 ms | tissue relaxation time T2, liver ([2]; 3 hours): 42 ± 2 ms | tissue relaxation time T2, muscle ([2]; 3 hours): 36 ± 3 ms | tissue relaxation time T1, HT29 tumor ([2]; 24 hours): 540 ± 20 ms | tissue relaxation time T1, WiDr tumor ([2]; 24 hours): 640 ± 10 ms | tissue relaxation time T1, kidneys ([2]; 24 hours): 240 ± 20 ms | tissue relaxation time T1, liver ([2]; 24 hours): 260 ± 10 ms | tissue relaxation time T1, muscle ([2]; 24 hours): 660 ± 10 ms | tissue relaxation time T2, HT29 tumor ([2]; 24 hours): 83 ± 7 ms | tissue relaxation time T2, WiDr tumor ([2]; 24 hours): 85 ± 2 ms | tissue relaxation time T2, kidneys ([2]; 24 hours): 54 ± 10 ms | tissue relaxation time T2, liver ([2]; 24 hours): 48 ± 7 ms | tissue relaxation time T2, muscle ([2]; 24 hours): 31 ± 1 ms | shortening of T1 tissue relaxation times, all three tumors ([2]; HT29, WiDr, MATLu, 2 hours): 2-3 factor | shortening of T1 tissue relaxation times, both tumors ([2]; HT29 and WiDr): 2-3 factor | tissue relaxation time T1, kidneys ([2]; HT29 mice, 2 hours): 150 ± 12 ms | tissue relaxation time T1, liver ([2]; HT29 mice, 2 hours): 174 ± 8 ms | tissue relaxation time T1, muscle ([2]; HT29 mice, 2 hours): 489 ± 57 ms | tissue relaxation time T2, kidneys ([2]; HT29 mice, 2 hours): 59 ± 3 ms | tissue relaxation time T2, liver ([2]; HT29 mice, 2 hours): 49 ± 2 ms | tissue relaxation time T2, muscle ([2]; HT29 mice, 2 hours): 56 ± 2 ms | tissue relaxation time T1, kidneys ([2]; MATLu mice, 2 hours): 171 ± 20 ms | tissue relaxation time T1, liver ([2]; MATLu mice, 2 hours): 191 ± 10 ms | tissue relaxation time T1, muscle ([2]; MATLu mice, 2 hours): 506 ± 10 ms | tissue relaxation time T2, kidneys ([2]; MATLu mice, 2 hours): 60 ± 1 ms | tissue relaxation time T2, liver ([2]; MATLu mice, 2 hours): 51 ± 2 ms | tissue relaxation time T2, muscle ([2]; MATLu mice, 2 hours): 54 ± 2 ms | tissue relaxation time T1, kidneys ([2]; WiDr mice, 2 hours): 159 ± 30 ms | tissue relaxation time T1, liver ([2]; WiDr mice, 2 hours): 180 ± 30 ms | tissue relaxation time T1, muscle ([2]; WiDr mice, 2 hours): 508 ± 40 ms | tissue relaxation time T2, kidneys ([2]; WiDr mice, 2 hours): 64 ± 2 ms | tissue relaxation time T2, liver ([2]; WiDr mice, 2 hours): 53 ± 5 ms | tissue relaxation time T2, muscle ([2]; WiDr mice, 2 hours): 62 ± 3 ms
